Measurements: BindingDB's records for doi:10.1016/s0960-894x(03)00639-5 (Instituto De Química Médica (Csic), 2003)

What was measured:
[1] = target: Thymidine kinase (Herpes simplex virus 1); assay: Inhibitory concentration on phosphorylation of [methyl-3H]-dTh by HSV-1 Thymidine Kinase
[2] = target: Thymidine kinase 2, mitochondrial (Homo sapiens) (UniProt O00142); assay: Inhibitory concentration on phosphorylation of [methyl-3H]-dTh by human Thymidine Kinase 2
Thymidine kinase 2, mitochondrial (Homo sapiens), sequence (O00142 whole entry, looked up): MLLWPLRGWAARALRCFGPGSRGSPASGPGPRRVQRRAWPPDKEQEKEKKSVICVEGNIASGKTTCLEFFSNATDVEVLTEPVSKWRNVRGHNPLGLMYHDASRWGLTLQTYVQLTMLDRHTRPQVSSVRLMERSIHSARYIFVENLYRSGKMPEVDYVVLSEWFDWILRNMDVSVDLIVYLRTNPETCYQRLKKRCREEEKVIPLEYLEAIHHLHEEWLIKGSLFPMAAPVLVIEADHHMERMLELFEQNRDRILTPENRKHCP

Compound	IC50 [1]	IC50 [2]
Cc1cn(C/C=C\CNCc2ccccc2)c(=O)[nH]c1=O [1-(4-Benzylamino-but-2-enyl)-5-methyl-1H-pyrimidine-2,4-dione]	> 500 µM	57 µM
Cc1cn(C/C=C\CN(Cc2ccccc2)Cc2ccccc2)c(=O)[nH]c1=O [1-(4-Dibenzylamino-but-2-enyl)-5-methyl-1H-pyrimidine-2,4-dione]		3.5 µM
Cc1cn(C/C=C\CNC(=O)c2cccc(C(F)(F)F)c2)c(=O)[nH]c1=O [N-[4-(5-Methyl-2,4-dioxo-3,4-dihydro-2H-pyrimidin-1-yl)-but-2-enyl]-3-trifluoromethyl-benzamide]	72 µM	28 µM
